Experimental data published in patent US20240002374A1, “5-MEMBERED HETEROARYLAMINOSULFONAMIDES FOR TREATING CONDITIONS MEDIATED BY DEFICIENT CFTR ACTIVITY” (Genzyme Corporation, priority 2019, published 2024).

Biological target: T1, CFTR (primary human bronchial epithelial cells from a ΔF508 homozygous CF donor, CF-HBE cells) (Homo sapiens, UniProt P13569, DEL508-508)
T1 construct: Primary human bronchial epithelial cells from a ΔF508 homozygous CF donor; host or cells: primary human bronchial epithelial cells (CF-HBE) from a ΔF508 homozygous CF donor
Test: TECC24 recording of CFTR-mediated transepithelial chloride transport (TECC24 AUC fold over DMSO @ 3 μM)
Type: cell-based
Details: 3 uM test agent; CF-HBE cells (ΔF508 homozygous) incubated 48 h; ratio of test agent AUC of forskolin-stimulated IEQ to vehicle (DMSO) AUC
Summary of the method: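 ΔF508-homozygous CF-HBE cells incubated 48 h at 36.5° C with test agent (3 μM) in IL-13-containing medium, then recorded in current clamp with benzamil (10 μM), forskolin (10 μM) and bumetanide (20 μM). AUC of equivalent Cl− current between forskolin and bumetanide expressed as fold over DMSO vehicle.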

T1 sequence (P13569 with tags, fused parts or gaps DEL508-508): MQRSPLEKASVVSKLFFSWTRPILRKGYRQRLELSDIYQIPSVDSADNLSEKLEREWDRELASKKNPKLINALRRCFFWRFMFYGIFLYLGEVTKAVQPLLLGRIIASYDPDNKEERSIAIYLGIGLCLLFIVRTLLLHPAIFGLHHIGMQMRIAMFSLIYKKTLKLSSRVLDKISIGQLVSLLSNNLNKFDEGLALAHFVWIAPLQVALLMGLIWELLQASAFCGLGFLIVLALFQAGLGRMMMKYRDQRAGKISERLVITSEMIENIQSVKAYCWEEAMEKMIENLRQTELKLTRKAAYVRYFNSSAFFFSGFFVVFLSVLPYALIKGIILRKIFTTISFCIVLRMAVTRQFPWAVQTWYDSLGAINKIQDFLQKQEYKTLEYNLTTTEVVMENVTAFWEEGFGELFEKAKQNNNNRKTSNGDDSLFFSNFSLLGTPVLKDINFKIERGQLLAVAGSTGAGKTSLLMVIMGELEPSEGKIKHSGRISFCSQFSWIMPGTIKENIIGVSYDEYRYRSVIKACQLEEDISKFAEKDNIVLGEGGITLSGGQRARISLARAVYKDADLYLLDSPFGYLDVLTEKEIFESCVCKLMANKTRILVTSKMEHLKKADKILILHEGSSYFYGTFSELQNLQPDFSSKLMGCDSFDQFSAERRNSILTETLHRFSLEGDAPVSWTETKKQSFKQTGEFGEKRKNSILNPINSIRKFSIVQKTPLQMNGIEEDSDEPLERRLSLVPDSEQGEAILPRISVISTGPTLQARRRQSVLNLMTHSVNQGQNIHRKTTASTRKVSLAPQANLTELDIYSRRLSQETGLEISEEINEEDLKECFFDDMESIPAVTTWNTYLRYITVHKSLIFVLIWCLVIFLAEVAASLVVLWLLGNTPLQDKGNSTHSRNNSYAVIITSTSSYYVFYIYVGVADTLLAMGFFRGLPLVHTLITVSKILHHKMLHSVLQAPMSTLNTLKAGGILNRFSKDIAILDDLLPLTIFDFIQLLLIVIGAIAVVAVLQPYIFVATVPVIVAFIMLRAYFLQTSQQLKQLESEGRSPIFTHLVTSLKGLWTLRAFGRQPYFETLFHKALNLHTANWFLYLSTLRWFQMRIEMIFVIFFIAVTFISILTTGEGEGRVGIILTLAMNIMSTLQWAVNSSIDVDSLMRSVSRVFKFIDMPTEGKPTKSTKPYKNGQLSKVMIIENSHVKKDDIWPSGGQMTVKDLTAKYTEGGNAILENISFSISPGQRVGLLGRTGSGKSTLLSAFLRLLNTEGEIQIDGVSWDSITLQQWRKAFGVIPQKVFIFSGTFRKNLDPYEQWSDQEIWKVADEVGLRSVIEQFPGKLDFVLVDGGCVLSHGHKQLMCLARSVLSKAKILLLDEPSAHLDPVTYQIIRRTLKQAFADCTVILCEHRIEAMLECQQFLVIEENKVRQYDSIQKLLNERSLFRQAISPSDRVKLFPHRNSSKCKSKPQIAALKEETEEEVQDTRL

SMILES | TECC AUC vs. DMSO @ 3 uM
CC(C)Oc1cc(Cl)ccc1-c1nc(NS(=O)(=O)c2ccccc2)sc1-c1ccc(OC(F)F)c(OCCC(C)(C)C)c1 [Example 380, N-[4-(4-chloro-2-propan-2-yloxyphenyl)-5-[4-(difluoromethoxy)-3-(3,3-dimethylbutoxy)phenyl]-1,3-thiazol-2-yl]benzenesulfonamide] | A (“A” refers to AUC > 5)
CC(C)Oc1cc(Cl)ccc1-c1nc(NS(=O)(=O)c2cccc(N)c2F)sc1-c1cccc(OCC(F)(F)C(C)(C)C)c1 [Example 382] | A (“A” refers to AUC > 5)
CNc1ccc(F)c(S(=O)(=O)Nc2nc(-c3c(C)cccc3C(F)(F)F)c(-c3cccc(OCCC(C)(C)C)c3)s2)c1 [Example 389, N-[5-[3-(3,3-dimethylbutoxy)phenyl]-4-[2-methyl-6-(trifluoromethyl)phenyl]-1,3-thiazol-2-yl]-2-fluoro-5-(methylamino)benzenesulfonamide] | A (“A” refers to AUC > 5)
COC(=O)C1CCCC(Nc2cccc(S(=O)(=O)Nc3nc(-c4c(C)cccc4C)c(-c4cccc(OCCC(C)(C)C)c4)s3)n2)C1 (centres unmarked) [Example 435, methyl 3-[[6-[[5-[3-(3,3-dimethylbutoxy)phenyl]-4-(2,6-dimethylphenyl)-1,3-thiazol-2-yl]sulfamoyl]pyridin-2-yl]amino]cyclohexane-1-carboxylate] | A (“A” refers to AUC > 5)
CC(C)c1ccccc1-c1nc(NS(=O)(=O)c2cccc(NC(C)C(F)(F)F)c2)sc1-n1ccc(OCC(C)(C)C(F)(F)F)n1 (centres unmarked) [Example 471, N-[4-(2-propan-2-ylphenyl)-5-[3-(3,3,3-trifluoro-2,2-dimethylpropoxy)pyrazol-1-yl]-1,3-thiazol-2-yl]-3-(1,1,1-trifluoropropan-2-ylamino)benzenesulfonamide] | B (“B” refers to AUC 2-5)
CC(C)c1ccccc1-c1nc(NS(=O)(=O)c2cccc(N)c2)sc1-c1cccc(OCC(F)(F)C(C)(C)C)c1 [Example 490, 3-amino-N-[5-[3-(2,2-difluoro-3,3-dimethylbutoxy)phenyl]-4-(2-propan-2-ylphenyl)-1,3-thiazol-2-yl]benzenesulfonamide] | B (“B” refers to AUC 2-5)
Cc1cccc(C)c1-c1nc(NS(=O)(=O)c2cn(C)nc2C)sc1N1CCOC2(CCC(OC(F)(F)F)C2)C1 (centres unmarked) [Example 491, N-[4-(2,6-dimethylphenyl)-5-[3-(trifluoromethoxy)-6-oxa-9-azaspiro[4.5]decan-9-yl]-1,3-thiazol-2-yl]-1,3-dimethylpyrazole-4-sulfonamide] | B (“B” refers to AUC 2-5)

Second part, the molecule after the results:

TECC AUC vs. DMSO @ 3 uM | SMILES
A (“A” refers to AUC > 5) | Cc1cccc(C)c1-c1nc(NS(=O)(=O)c2ccccc2)sc1C1=CC(CC(C)(C)C)OCC1 (centres unmarked) [Example 370, N-[4-(2,6-dimethylphenyl)-5-[6-(2,2-dimethylpropyl)-3,6-dihydro-2H-pyran-4-yl]-1,3-thiazol-2-yl]benzenesulfonamide]
A (“A” refers to AUC > 5) | Cc1cccc(C)c1-c1nc(NS(=O)(=O)c2ccccc2)sc1N1C[C@H](OC(C)(C)C)C[C@H]1C [Example 402, N-[4-(2,6-dimethylphenyl)-5-[(2R,4R)-2-methyl-4-[(2-methylpropan-2-yl)oxy]pyrrolidin-1-yl]-1,3-thiazol-2-yl]benzenesulfonamide]
A (“A” refers to AUC > 5) | CC(C)c1ccccc1-c1nc(NS(=O)(=O)c2cccc(N[C@H](C)C(F)(F)F)c2)sc1-c1cccc(OCC(C)(C)C)c1 [Example 429, N-[5-[3-(2,2-dimethylpropoxy)phenyl]-4-(2-propan-2-ylphenyl)-1,3-thiazol-2-yl]-3-[[(2R)-1,1,1-trifluoropropan-2-yl]amino]benzenesulfonamide]
B (“B” refers to AUC 2-5) | Cc1cccc(C)c1-c1nc(NS(=O)(=O)c2cn(C)nc2C)sc1N1C[C@H](OC(C)(C)C)C[C@H]1C [Example 495, N-[4-(2,6-dimethylphenyl)-5-[(2R,4R)-2-methyl-4-[(2-methylpropan-2-yl)oxy]pyrrolidin-1-yl]-1,3-thiazol-2-yl]-1,3-dimethylpyrazole-4-sulfonamide]
